Values joined by “and” are separate entries in the source; they are usually repeats but may differ in a detail not shown here. Equal entries are not always repeated.
Target: T1, Chymase (Homo sapiens, UniProt P23946)
T1 sequence (P23946 22-247): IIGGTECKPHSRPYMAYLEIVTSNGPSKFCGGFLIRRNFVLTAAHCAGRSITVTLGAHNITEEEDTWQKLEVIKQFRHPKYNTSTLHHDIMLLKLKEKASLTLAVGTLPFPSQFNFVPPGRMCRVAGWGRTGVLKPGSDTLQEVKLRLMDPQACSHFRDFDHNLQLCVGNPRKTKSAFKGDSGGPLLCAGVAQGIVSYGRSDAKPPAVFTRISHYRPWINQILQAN
Test: In vitro Assay for Inhibition of Chymase
Format: biochemical
Settings: 500 pM chymase, 100 nM rhodamine 110 peptide substrate, 1 hour at 28° C., fluorescence
Protocol: In vitro Assay for Inhibition of Chymase
Chymase assays were performed in a total volume of 15 μL in Corning black opaque 384-well microtiter plates with a non-binding surface (Coming, N.Y.). The assay buffer was comprised of 20 mM Tris HCl pH 8.0, 50 mM NaCl, 0.01% CHAPS. The test compounds were serially diluted 3-fold with neat DMSO in a 96-well polypropylene plate from a 10 mM DMSO stock to give the 10 point dose response curve. 3 μL of the resulting DMSO solution were transferred to a 384-well polypropylene plate in duplicate, and 37 μL of assay buffer was added. Chymase was added to the assay plate in 3 uL of assay buffer followed by 2 uL of the appropriate compound dilution using a PlateMate Plus (Matrix Technologies Corp., Hudson, N.H.). The reaction was initiated by the addition of 10 uL rhodamine 110, bis-(succinoyl-L-alanyl-L-alanyl-L-prolyl-L-phenylalanylamide) (American Peptides, Sunnyvale, Calif.) in assay buffer containing 150 μM tris(2-carboxyethyl)phosphine (TCEP, Pierce Chemical, Rockford, Ill.) using a Multidrop (Thermo Electron Corp., Waltham, Mass.). Final assay concentrations were 500 pM chymase, 100 nM substrate, 100 μM TCEP, and 1% DMSO. The plates were incubated at 28° C. and 80% humidity for 1 hour, at which time the fluorescence was read on a Viewlux 1430 Microplate Imager (Perkin Elmer Life Sciences, Boston, Mass.) with 485 nm excitation, 530 nm emission, and a fluorescein dichroic mirror. The percentage of control values were calculated relative to assay blanks containing complete reaction minus chymase and a 100% control containing assay buffer with 1% DMSO in place of compound. IC50 values were obtained by fitting the data using XLFit4 (IDBS Software).

Row | IC50 | Structure (SMILES)
1 | 3 nM | Cc1cccc2c1c(Cn1c(=O)n(CC3(C(=O)O)CCCCC3)c(=O)c3ccccc31)cn2C [1-[1-(1,4-Dimethyl-1H-indol-3-ylmethyl)-2,4-dioxo-1,4-dihydro-2H-quinazolin-3-ylmethyl]-cyclohexanecarboxylic acid]
2 | 4 nM | CCC(C(=O)O)n1c(=O)c2ccccc2n(Cc2cn(C)c3cccc(C)c23)c1=O (stereo not shown) [2-[1-(1,4-Dimethyl-1H-indol-3-ylmethyl)-2,4-dioxo-1,4-dihydro-2H-quinazolin-3-yl]-butyric acid]
3 | 3 nM | CCCCC(C(=O)O)n1c(=O)c2ccccc2n(Cc2cn(C)c3cccc(C)c23)c1=O (stereo not shown) [2-[1-(1,4-Dimethyl-1H-indol-3-ylmethyl)-2,4-dioxo-1,4-dihydro-2H-quinazolin-3-yl]-hexanoic acid]
4 | 4 nM | CCCC(C(=O)O)n1c(=O)c2ccccc2n(Cc2cn(C)c3cccc(C)c23)c1=O (stereo not shown) [2-[1-(1,4-Dimethyl-1H-indol-3-ylmethyl)-2,4-dioxo-1,4-dihydro-2H-quinazolin-3-yl]-pentanoic acid]
5 | 4 nM | CCCCC(CC(=O)O)n1c(=O)c2ccccc2n(Cc2cn(C)c3cccc(C)c23)c1=O (stereo not shown) [3-[1-(1,4-Dimethyl-1H-indol-3-ylmethyl)-2,4-dioxo-1,4-dihydro-2H-quinazolin-3-yl]-heptanoic acid]
6 | 2 nM | CCC(CC(=O)O)n1c(=O)c2ccccc2n(Cc2nsc3cc(C)cc(C)c23)c1=O (stereo not shown) [3-[1-(4,6-Dimethyl-1,2-benzisothiazol-3-ylmethyl)-2,4-dioxo-1,4-dihydro-2H-quinazolin-3-yl]-pentanoic acid]
7 | 3 nM | Cc1cccc2c1c(Cn1c(=O)n(CC(CC(=O)O)c3ccccc3)c(=O)c3ccccc31)cn2C (stereo not shown) [4-[1-(1,4-Dimethyl-1H-indol-3-ylmethyl)-2,4-dioxo-1,4-dihydro-2H-quinazolin-3-yl]-3-phenyl-butyric acid]
8 | 1.4 nM | CC[C@H](C(=O)O)n1c(=O)c2ccccc2n(Cc2cn(C)c3cccc(C)c23)c1=O [(R)-2-[1-(1,4-Dimethyl-1H-indol-3-ylmethyl)-2,4-dioxo-1,4-dihydro-2H-quinazolin-3-yl]-butyric acid]
9 | 3 nM and 0.8 nM | CCCC[C@H](C(=O)O)n1c(=O)c2ccccc2n(Cc2cn(C)c3cccc(C)c23)c1=O [(R)-2-[1-(1,4-Dimethyl-1H-indol-3-ylmethyl)-2,4-dioxo-1,4-dihydro-2H-quinazolin-3-yl]-hexanoic acid]
10 | 1.9 nM | Cc1cccc2c1c(Cn1c(=O)n([C@H](C)C(=O)O)c(=O)c3ccccc31)cn2C [(R)-2-[1-(1,4-Dimethyl-1H-indol-3-ylmethyl)-2,4-dioxo-1,4-dihydro-2H-quinazolin-3-yl]-propionic acid]
11 | 1.6 nM | CCCC[C@H](C(=O)O)n1c(=O)c2cc(OC)ccc2n(Cc2cn(C)c3cccc(C)c23)c1=O [(R)-2-[1-(1,4-Dimethyl-1H-indol-3-ylmethyl)-6-methoxy-2,4-dioxo-1,4-dihydro-2H-quinazolin-3-yl]-hexanoic acid]
12 | 3 nM | CCCC[C@H](C(=O)O)n1c(=O)c2ccccc2n(Cc2nsc3cc(C)cc(C)c23)c1=O [(R)-2-[1-(4,6-Dimethyl-1,2-benzisothiazol-3-ylmethyl)-2,4-dioxo-1,4-dihydro-2H-quinazolin-3-yl]-hexanoic acid]
13 | 0.27 nM | CCC[C@H](C(=O)O)n1c(=O)c2ccccc2n(Cc2cn(C)c3cc(C)cc(C)c23)c1=O [(R)-2-[2,4-Dioxo-1-(1,4,6-trimethyl-1H-indol-3-ylmethyl)-1,4-dihydro-2H-quinazolin-3-yl]-pentanoic acid]
14 | 1 nM | Cc1cccc2c1c(Cn1c(=O)n([C@H](CC(=O)O)c3ccccc3)c(=O)c3ccccc31)cn2C [(R)-3-[1-(1,4-Dimethyl-1H-indol-3-ylmethyl)-2,4-dioxo-1,4-dihydro-2H-quinazolin-3-yl]-3-phenyl-propionic acid]
15 | 3.9 nM | CC[C@H](CC(=O)O)n1c(=O)c2ccccc2n(Cc2cn(C)c3cccc(C)c23)c1=O [(R)-3-[1-(1,4-Dimethyl-1H-indol-3-ylmethyl)-2,4-dioxo-1,4-dihydro-2H-quinazolin-3-yl]-pentanoic acid]
16 | 1 nM | Cc1cccc2c1c(Cn1c(=O)n([C@@H](C(=O)O)c3ccccc3)c(=O)c3ccccc31)cn2C [(R)-[1-(1,4-Dimethyl-1H-indol-3-ylmethyl)-2,4-dioxo-1,4-dihydro-2H-quinazolin-3-yl]-phenyl-acetic acid]

Row | IC50 | Structure (SMILES)
17 | 1.8 nM | Cc1cc(C)c2c(Cn3c(=O)n([C@@H](C(=O)O)c4ccccc4)c(=O)c4ccccc43)nsc2c1 [(R)-[1-(4,6-Dimethyl-1,2-benzisothiazol-3-ylmethyl)-2,4-dioxo-1,4-dihydro-2H-quinazolin-3-yl]-phenyl-acetic acid]
18 | 1.7 nM | CC[C@@H](C(=O)O)n1c(=O)c2ccccc2n(Cc2cn(C)c3cccc(C)c23)c1=O [(S)-2-[1-(1,4-Dimethyl-1H-indol-3-ylmethyl)-2,4-dioxo-1,4-dihydro-2H-quinazolin-3-yl]-butyric acid]
19 | 2 nM | CCCC[C@@H](C(=O)O)n1c(=O)c2ccccc2n(Cc2cn(C)c3cccc(C)c23)c1=O [(S)-2-[1-(1,4-Dimethyl-1H-indol-3-ylmethyl)-2,4-dioxo-1,4-dihydro-2H-quinazolin-3-yl]-hexanoic acid]
20 | 1.5 nM | CCC[C@@H](C(=O)O)n1c(=O)c2ccccc2n(Cc2cn(C)c3cccc(C)c23)c1=O [(S)-2-[1-(1,4-Dimethyl-1H-indol-3-ylmethyl)-2,4-dioxo-1,4-dihydro-2H-quinazolin-3-yl]-pentanoic acid]
21 | 2.5 nM | Cc1cccc2c1c(Cn1c(=O)n([C@@H](C)C(=O)O)c(=O)c3ccccc31)cn2C [(S)-2-[1-(1,4-Dimethyl-1H-indol-3-ylmethyl)-2,4-dioxo-1,4-dihydro-2H-quinazolin-3-yl]-propionic acid]
22 | 2.6 nM | CCCC[C@@H](C(=O)O)n1c(=O)c2cc(OC)ccc2n(Cc2cn(C)c3cccc(C)c23)c1=O [(S)-2-[1-(1,4-Dimethyl-1H-indol-3-ylmethyl)-6-methoxy-2,4-dioxo-1,4-dihydro-2H-quinazolin-3-yl]-hexanoic acid]
23 | 4.9 nM | CCCC[C@@H](C(=O)O)n1c(=O)c2ccc(OC)cc2n(Cc2cn(C)c3cccc(C)c23)c1=O [(S)-2-[1-(1,4-Dimethyl-1H-indol-3-ylmethyl)-7-methoxy-2,4-dioxo-1,4-dihydro-2H-quinazolin-3-yl]-hexanoic acid]
24 | 1.8 nM | CCCC[C@@H](C(=O)O)n1c(=O)c2cc(OC)ccc2n(Cc2nsc3cc(C)cc(C)c23)c1=O [(S)-2-[1-(4,6-Dimethyl-1,2-benzisothiazol-3-ylmethyl)-6-methoxy-2,4-dioxo-1,4-dihydro-2H-quinazolin-3-yl]-hexanoic acid]
25 | 3.2 nM | CC[C@@H](CC(=O)O)n1c(=O)c2ccccc2n(Cc2cn(C)c3cccc(C)c23)c1=O [(S)-3-[1-(1,4-Dimethyl-1H-indol-3-ylmethyl)-2,4-dioxo-1,4-dihydro-2H-quinazolin-3-yl]-pentanoic acid]
26 | 3.7 nM | CC[C@@H](CC(=O)O)n1c(=O)c2ccccc2n(Cc2nsc3cc(C)cc(C)c23)c1=O [(S)-3-[1-(4,6-Dimethyl-benzo[d]isothiazol-3-ylmethyl)-2,4-dioxo-1,4-dihydro-2H-quinazolin-3-yl]-pentanoic acid]
27 | 0.92 nM | Cc1cc(C)c2c(Cn3c(=O)n([C@H](C(=O)O)c4ccc(Cl)cc4)c(=O)c4ccccc43)nsc2c1 [(S)-(4-Chloro-phenyl)-[1-(4,6-dimethyl-1,2-benzisothiazol-3-ylmethyl)-2,4-dioxo-1,4-dihydro-2H-quinazolin-3-yl]-acetic acid]
28 | 2 nM | Cc1cccc2c1c(Cn1c(=O)n([C@H](C(=O)O)c3ccccc3)c(=O)c3ccccc31)cn2C [(S)-[1-(1,4-Dimethyl-1H-indol-3-ylmethyl)-2,4-dioxo-1,4-dihydro-2H-quinazolin-3-yl]-phenyl-acetic acid]
29 | 1 nM | Cc1cc(C)c2c(Cn3c(=O)n([C@H](C(=O)O)c4ccccc4)c(=O)c4ccccc43)nsc2c1 [(S)-[1-(4,6-Dimethyl-1,2-benzisothiazol-3-ylmethyl)-2,4-dioxo-1,4-dihydro-2H-quinazolin-3-yl]-phenyl-acetic acid]
30 | 3 nM | Cc1cccc2c1c(Cn1c(=O)n(C3(CC(=O)O)CCCCC3)c(=O)c3ccccc31)cn2C [{1-[1-(1,4-Dimethyl-1H-indol-3-ylmethyl)-2,4-dioxo-1,4-dihydro-2H-quinazolin-3-yl]-cyclohexyl}-acetic acid]
31 | 3 nM | Cc1cccc2c1c(Cn1c(=O)n(CC3(CC(=O)O)CCCCC3)c(=O)c3ccccc31)cn2C [{1-[1-(1,4-Dimethyl-1H-indol-3-ylmethyl)-2,4-dioxo-1,4-dihydro-2H-quinazolin-3-ylmethyl]-cyclohexyl}-acetic acid]

— patent publication US8377949B2, “Quinazolinedione chymase inhibitors” (Boehringer Ingelheim International GmbH, priority 2007, dated 2013)
